Experiments:
Poria placenta = assay: Agar hyphae growth test, minimum inhibitory concentration (MIC) and Kull synergism; format: cell-based; settings: malt extract/peptone nutrient agar, 26° C., radial hyphae growth suppressed completely; read-out: MIC against Poria placenta
Procedure: (§1) The synergism was determined by the method described by Kull et al. (F. C. Kull, P. C. Eismann, H. D. Sylvestrowicz, R. L. Mayer, Applied Microbiology 1961, 9, 538-541). Here, the following relations apply:
(§2) [formula] X=1 means additivity X>1 means antagonism X<1 means synergism Qa=concentration of substance A which is the MIC Qb=concentration of substance B which is the MIC QA=concentration of substance A in the concentration of A/B which suppresses the microbial growth QB=concentration of substance B in the concentration of A/B which suppresses the microbial growth Results:
(§3) Mycelium pieces were punched out of a colony of the wood-destroying fungus Poria placenta and incubated at 26° C. on a malt extract/peptone-containing nutrient agar. The hyphae growth with and without added active compound and/or additive was compared. The minimum inhibitory concentration (MIC) stated is the concentration at which the radial hyphae growth is suppressed completely.

Gloeophyllum trabeum = assay: as above; format: cell-based; settings: 168 h, malt extract/peptone nutrient agar, 26° C., radial hyphae growth suppressed completely, about 1 week, read-out: MIC against Gloeophyllum trabeum
Procedure: as §3, with “Gloeophyllum trabeum” for “Poria placenta”, “amidoalkylamine” for “additive”, “completely (incubation time: about 1 week depending on the fungal growth of the comparative sample without active compound).” for “completely.”
as §1
as §2, with “Results: […]” for “Results:”

| Structure (SMILES) | MIC (Poria placenta) [µg/mL] | MIC (Gloeophyllum trabeum) [µg/mL] |
| --- | --- | --- |
| CCCC1COC(Cn2cncn2)(c2ccc(Cl)cc2Cl)O1 (stereo not drawn) [propiconazole] | 0.5 |  |
| CC(C)(C)C(O)(CCc1ccc(Cl)cc1)Cn1cncn1 (stereo not drawn) [tebuconazole] |  | 0.5 |
| CC(C)(C)C(=O)C(Oc1ccc(Cl)cc1)n1cncn1 (stereo not drawn) [triadimefon] | 3 |  |

From patent US8002883B2, “Amidoalkylamine-comprising azole compositions for protecting industrial materials” (LANXESS Deutschland GmbH, priority 2009, dated 2011)
